Laboratory results reported in US9291621B2, “AGER-peptides and use thereof” (AbbVie Deutschland GmbH & Co. KG, priority 2005, dated 2016).

Key:
[1] = system: hippocampal sections (CA1 region); assay: Excitatory synaptic transmission and long-term potentiation in hippocampal sections; type: cell-based, male Wistar rats; settings: for effect on short-term and long-term potentiation: theta burst stimulation, p=0.016 (NtermR31), p=0.794 (scraNtermR31), repeated measures ANOVA
Protocol: 400 μm-thick transverse hippocampal sections from 7-8-week-old male Wistar rats (Harlan Winkelmann, Bochum, Germany) were prepared using a tissue chopper and equilibrated for at least 1 hour at 33° C. in Carbogen-gassed artificial cerebrospinal fluid (aCSF) of the following composition: NaCl 124 mM; KCl 4.9 mM; MgSO4 1.3 mM; CaCl2 2.5 mM; KH2PO4 1.2 mM; NaHCO3 25.6 mM; glucose 10 mM; pH 7.4. Recordings were made from the section immersed in Carbogen-gassed artificial cerebrospinal fluid (aCSF) of the same composition.
Stimulation of the Schaffer collaterals took place in the stratum radiatum using a monopolar stimulating electrode with biphasic pulse (voltage range 1-5 V). Excitatory post-synaptic potentials (EPSPs) were recorded in the stratum radiatum using aCSF-filled glass electrodes against a chlorinated silver reference electrode (bath). These reflect in particular the strength of the glutamatergic synaptic transmission.
The values were determined from the gradient of the field EPSPs recorded every 5 min for a period of 120 minutes before and 120 minutes after LTP induction. LTP was induced by so-called theta burst stimulation (4×2 pulses at an interval of 200 ms with a double-pulse interval of 10 ms). […]

[2] = target: T1, sRAGE-6×HIS (amino acids 23-352, NP_001127) (Homo sapiens, UniProt Q15109); assay: AlphaScreen measurement of peptide binding to sRAGE; settings: for binding to the receptor (AlphaScreen): biotinylated control peptides 0, 10, 30, 100, 300 nM
T1 construct: fusion protein sRAGE-6×HIS (amino acids 23-352, NP_001127); made in house
T1 sequence (Q15109 with tags, fused parts or gaps): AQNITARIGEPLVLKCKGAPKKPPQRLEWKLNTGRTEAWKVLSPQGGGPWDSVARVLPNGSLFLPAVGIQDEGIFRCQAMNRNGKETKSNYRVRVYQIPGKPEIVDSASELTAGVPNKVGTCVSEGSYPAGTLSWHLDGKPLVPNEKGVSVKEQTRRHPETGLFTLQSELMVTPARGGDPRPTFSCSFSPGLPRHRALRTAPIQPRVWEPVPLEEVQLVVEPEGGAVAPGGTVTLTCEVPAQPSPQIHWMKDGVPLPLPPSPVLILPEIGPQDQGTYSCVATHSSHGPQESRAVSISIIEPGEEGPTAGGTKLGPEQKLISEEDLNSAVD
Protocol: The entire homogeneous assay was carried out in 25 mM HEPES, 100 mM NaCl of pH 7.4 and 0.1% BSA in a volume of 20 μl.
(§1) The individual components were brought together in a defined time sequence. […] The various amounts of peptide were then added in order, after a further 30 minutes, to add the donor beads. After a further 60 minutes, the fluorescence was measured in the AlphaQuest instrument from Perkin-Elmer with a time lag of one second. Each measured point was determined as triplicate. The analysis and graphical workup of the results took place with the GraphPrism 4.0 software package.
The binding to the RAGE receptor was measured by employing the AlphaScreen™ System (order number: 6760610M) from Perkin Elmer (Shelton, Conn., USA).
The assay was carried out by the manufacturer's protocol in 25 mM HEPES, 100 mM NaCl of pH 7.4 and 0.1% BSA in a volume of 20 μl. The mixture comprised 2.5 ng/μl of the fusion protein sRAGE-6×HIS (amino acids 23-352, NP_001127), 20 ng/μl anti-HIS acceptor beads, 20 ng/μl streptavidin donor beads and the biotinylated peptides in concentrations of 0, 10, 30, 100, and 300 nM. The peptides, with the exception of AR 1-42 oligomers, were heated at 50° C. for 10 minutes immediately before the test in order to loosen possible aggregations.
as §1, with “evaluation” for “analysis”

[3] = target: sRAGE/Aβ globulomer interaction (Homo sapiens, UniProt P05067); settings: for inhibition of Aβ oligomer binding to sRAGE: increasing peptide concentrations, Aβ 1/5 biotin globulomer 800 nM
sRAGE/Aβ globulomer interaction, sequence (P05067 672-713 limits assumed): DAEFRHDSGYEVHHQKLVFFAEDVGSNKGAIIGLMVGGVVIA
Protocol: The HTRF donor and acceptor components, Anti6HIS europium cryptate (CIS Bio catalogue number: 61HISKLA; 500 wells/13 μg) and streptavidin XL-665 (CIS Bio catalogue number: 61HISAXLA, 500 wells/250 μg) were each dissolved in 250 μl of dd H2O, Starting from these stock solutions, 1:50 working dilutions were prepared with a final concentration of 7.4 nM Anti6His cryptates and 121.2 nM streptavidin XL-665 in PBS, 0.1% BSA, pH 7.4.
Working solutions of peptides 6 and 7 were prepared with concentrations of 200 μM, 100 μM, 50 μM, 25 μM, 12.5 μM, 6.25 μM, 3.125 μM, 1.56 μM and 0.78 μM.
To carry out the tests, initially 4 μl of the working solutions of each of peptides 6 and 7, and of a buffer control, were mixed with 4 μl of a 4 μM stock solution of the Aβ 1/5 biotin globulomer (final assay concentration 800 nM) and incubated at room temperature for one hour. The A beta 1/5 biotin globulomer concentration indicated here is based on the Aβ 1-42 monomers which were used to prepare the globulomers.
2 μl portions of the 7.4 nM Anti6His cryptates and of the 121.2 nM streptavidin solution described above were added in order then to incubate this mixture, now at 4° C., for a further two hours. After addition of 4 μl of a 2M KF stock solution, the complete mixture was measured in a BMG Pherastar fluorescence measuring instrument (BMG Labtech GmbH, Offenburg, Germany) in HTRF mode. Separate measurements without peptide were carried out for the max-signal curve. For the background curve, measurements were used with in each case only the AntiGHIS cryptates and strepavidin XL solutions. The calculated % DeltaF values were transferred into GraphPad Prism 4 (GraphPad Software, San Diego, USA) and evaluated. The concentrations indicated in the graphs are based on the final concentration of the complete 20 μl mixture.

[4] = system: HEK293 RhoA/NgR/p75 cells; assay: Functional actin cytoskeletal rearrangement (ACR) assay; type: cell-based, human; settings: preincubation 0.2, 1, 5 μM; stimulation with AP-Nogo-66 (9.6 μg/ml)
Protocol: 1×10^4 cells were […] into microtiter plates with 96 wells two days before the stimulation. The cells were stimulated with a suitable reagent (e.g. LPA or AP-Nogo-66) in culture medium (RPMI-Glutamax) comprising 5% FCS. After a stimulation period of 5 to 10 minutes, the activation was stopped with cold PBS. The cells were fixed with 3-4% strength paraformaldehyde solution, permeabilized with PBS comprising 0.2% Triton X-100, and incubated with phalloidin Alexa 568 or 488 for 30-45 minutes. Incubation with DAPI additionally took place for 5 minutes for nuclear staining. The cells were visualized with the aid of an epifluorescence microscope (Axiovert 25).
1×10^4 Hek293 RhoA/NgR/p75 cells were transferred into MTP Biocoat microtiter plates with 96 wells two days before the actual start of the test. […] The cells were stimulated with the NgR ligand AP-Nogo-66 (9.6 μg/ml) in culture medium comprising 5% FCS. An unstimulated control mixture (without AP-Nogo66) was prepared for each series of tests. After a stimulation period of 5 to 10 minutes, the activation was stopped with cold PBS. […] were recorded with a cooled CCD camera from Zeiss, and the percentage content of contracted cells, based on the total cell count, was found.

[5] = biotinylated control peptides 0-300 nM

APLACPRELIKGKWEVKPKRNPKNQLTIGQL [ScraNtermR31]
effect on short-term and long-term potentiation ([1]; 500 nM): no effect

E T E D S D T [Minus7]
binding to the receptor (AlphaScreen) [2]: no bonding

F P V I P A L F W I V L M [Unpol13]
binding to the receptor (AlphaScreen) [2]: no bonding

F S R I R A T H W R V D G [AlterCharge1]
binding to the receptor (AlphaScreen) [2]: binding

GKPRAPKCLKPEQ [ScraNtermR13]
affinity to sRAGE compared with NtermR13 [2, 5]: same or slightly higher affinity | maximum signal intensity in the test [2, 5]: highest maximum signal intensity

LPRHRALRTAPIQPRVWEPVPLEEVQLVVE [peptide 7]
inhibitory activity, peptide 7 compared with peptide 6 [3]: more pronounced | inhibition of Aβ oligomer binding to sRAGE [3]: Inhibition

QNITARIGEPLVLKCKGAPKKPPQRLEWKLN [NtermR31]
percentage content of contracted HEK cells [4]: concentration-dependent reduction | input/output ratio ([1]; 500 nM): unaffected | effect on short-term and long-term potentiation ([1]; 500 nM): distinctly suppresses | effect on basal synaptic transmission ([1]; application for 90 minutes): no effect

R L K R G H A [Plus7]
maximum signal intensity in the test [2, 5]: highest maximum signal intensity

TLQSELMVTPARGGDPRPTFSCSFSPGLPR [peptide 6]
inhibition of Aβ oligomer binding to sRAGE [3]: Inhibition
